{"source": "paper PMC6413339", "about": "(EBioMedicine, 2019)", "key": {"[1]": {"target": "T1, ARAF (Homo sapiens, UniProt P10398)", "T1 construct": "purchased BPS 40010", "test": "Cell-free kinase assay, dose-response", "assay_type": "biochemical", "settings": "ATP 100 μM; read-out: IC50 ARAF (A-Raf)", "method": "(§1) Cell-free kinase activity assays were performed at Reaction Biology Corporation. Briefly, kinases were incubated with substrates, 100 μM ATP and a 3-fold serial dilution of compounds starting at 1 μM. DMSO was used as control. […] Experiments were performed in duplicates. The concentrations of kinases and substrates used in the assays are indicated on Table S1. Kinase activity was quantified using the ADP-Glo™ Kinase Assay System (Promega, Madison, WI) following the manufacturer's recommendations."}, "[2]": {"target": "T2, BRAF (Homo sapiens, UniProt P15056)", "T2 construct": "purchased BPS 40005", "test": "Cell-free kinase assay, dose-response", "assay_type": "biochemical", "settings": "ATP 100 μM; read-out: IC50 BRAF (B-Raf)", "method": "as §1"}, "[3]": {"target": "T3, MEK1 (Homo sapiens, UniProt Q02750)", "T3 construct": "purchased Invitrogen PV3303", "test": "Cell-free kinase assay, dose-response", "assay_type": "biochemical", "settings": "up to 1 μM; ATP 100 μM", "method": "as §1"}, "[4]": {"target": "T4, RAF-1 (Homo sapiens, UniProt P04049, Y340D/Y341D)", "T4 construct": "purchased Invitrogen PV3805", "T4 sequence (P04049 306-648 Y340D/Y341D limits assumed)": "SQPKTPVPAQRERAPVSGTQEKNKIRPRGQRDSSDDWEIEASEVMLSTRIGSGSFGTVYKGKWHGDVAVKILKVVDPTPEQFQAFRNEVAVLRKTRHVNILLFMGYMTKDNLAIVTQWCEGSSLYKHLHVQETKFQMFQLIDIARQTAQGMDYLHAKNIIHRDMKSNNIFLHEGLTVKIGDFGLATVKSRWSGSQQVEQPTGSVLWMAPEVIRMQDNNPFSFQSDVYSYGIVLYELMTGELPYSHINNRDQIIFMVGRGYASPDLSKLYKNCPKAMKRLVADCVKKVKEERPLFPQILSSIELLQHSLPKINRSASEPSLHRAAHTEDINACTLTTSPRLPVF", "test": "Cell-free kinase assay, dose-response", "assay_type": "biochemical", "settings": "ATP 100 μM; read-out: IC50 RAF-1 (c-Raf)", "method": "as §1"}, "[5]": {"target": "T5, RSK1 (Homo sapiens, UniProt Q15418)", "T5 construct": "purchased Invitrogen PR6812A", "test": "Cell-free kinase assay, dose-response", "assay_type": "biochemical", "settings": "ATP 100 μM", "method": "as §1"}, "[6]": {"target": "T6, p38 (Homo sapiens, UniProt Q16539)", "T6 construct": "purchased Invitrogen PV3304", "test": "Cell-free kinase assay, dose-response", "assay_type": "biochemical", "settings": "ATP 100 μM", "method": "as §1"}, "[7]": {"target": "T7, p70S6K (Homo sapiens, UniProt P23443)", "T7 construct": "purchased Invitrogen PV3815", "test": "Cell-free kinase assay, dose-response", "assay_type": "biochemical", "settings": "ATP 100 μM", "method": "as §1"}, "[8]": {"tested_on": "MV4–11 cells", "test": "Trypan blue exclusion viable cell count", "assay_type": "cell-based, human", "settings": "0.1–10 nM, 72 h", "method": "To determine the effect of HSN431 on actual leukemia cell counts, MV4–11 cells were seeded into 96 well plates as above and treated with either DMSO vehicle, or HSN431 at the following concentrations: 0.1 nM, 0.2 nM, 0.5 nM, 1 nM, 2 nM, 5 nM, and 10 nM. Cells were incubated for 72 h, and then counted using trypan blue exclusion on the Countess automated cell counter (Life Technologies, Carlsbad, CA). Cell counts were performed in triplicates, and the averages, standard deviations and t-test statistical analyses were graphed using GraphPad Prism software (GraphPad, La Jolla, CA)."}, "[9]": {"tested_on": "c-Myc", "test": "Western blot, MV4–11 cells", "assay_type": "cell-based, human", "settings": "2 nM or 10 nM, 6 h and 48 h", "method": "(§2) MV4–11 cultures were treated with 2 nM and 10 nM of compounds for 6 h and 48 h. Total protein extraction, gel separation, transfer and imaging of blots were performed as previously described. The following primary antibodies from Cell Signaling Technologies (MA, USA) were used: Phospho-p70S6K (cat. no. 9205, RRID: AB_330944), p70S6K (cat. no. 9202, RRID: AB_331676), Phospho-p38 (cat. no. 9211, RRID: AB_331641), p38 (cat. no. 9212, RRID: AB_330713), c-Myc (cat. no. 9402, RRID: AB_2151827), Phospho-FLT3 (cat. no. 3461, RRID: AB_331060), FLT3 (cat. no. 3462, RRID: AB_10693420), Phospho-STAT5 (cat. no. 9359, RRID: AB_823649), STAT5 (cat. no. 9363, RRID: AB_2196923), Phospho-ERK (cat. no. 9101, RRID: AB_331646), ERK (cat. no. 4695, RRID: AB_390779), Phospho-AKT (cat. no. 9271), AKT (cat. no. 9272, RRID: AB_329825), Phospho-Src (cat. no. 2101, RRID: AB_331697), Src (cat. no. 2110, RRID: AB_2106058), Phospho-STAT3 (cat. no. 9145, RRID: AB_2491009), STAT3 (cat. no. 12640, RRID: AB_2629499). Mouse anti-β-Actin antibody was purchased from Sigma (MO, USA). A horseradish peroxidase-conjugated anti-rabbit or anti-mouse antibody (Cell Signaling Technologies) was used as secondary antibody. Scanned images were analyzed using image J software."}, "[10]": {"tested_on": "phospho-Akt", "test": "Western blot, MV4–11 cells", "assay_type": "cell-based, human", "settings": "2 nM or 10 nM, 6 h and 48 h", "method": "as §2"}, "[11]": {"tested_on": "phospho-ERK", "test": "Western blot, MV4–11 cells", "assay_type": "cell-based, human", "settings": "2 nM or 10 nM, 6 h and 48 h", "method": "as §2"}, "[12]": {"tested_on": "phospho-FLT3", "test": "Western blot, MV4–11 cells", "assay_type": "cell-based, human", "settings": "2 nM or 10 nM, 6 h and 48 h", "method": "as §2"}, "[13]": {"tested_on": "phospho-STAT3", "test": "Western blot, MV4–11 cells", "assay_type": "cell-based, human", "settings": "2 nM or 10 nM, 6 h and 48 h", "method": "as §2"}, "[14]": {"tested_on": "phospho-STAT5", "test": "Western blot, MV4–11 cells", "assay_type": "cell-based, human", "settings": "2 nM or 10 nM, 6 h and 48 h", "method": "as §2"}, "[15]": {"tested_on": "phospho-Src", "test": "Western blot, MV4–11 cells", "assay_type": "cell-based, human", "settings": "2 nM or 10 nM, 6 h and 48 h", "method": "as §2"}, "[16]": {"tested_on": "phospho-p38", "test": "Western blot, MV4–11 cells", "assay_type": "cell-based, human", "settings": "2 nM or 10 nM, 6 h and 48 h", "method": "as §2"}, "[17]": {"tested_on": "phospho-p70S6K", "test": "Western blot, MV4–11 cells", "assay_type": "cell-based, human", "settings": "2 nM or 10 nM, 6 h and 48 h", "method": "as §2"}, "[18]": {"tested_on": "phospho-FLT3", "test": "Western blot, MOLM-14 (ITD, D835Y) cells", "assay_type": "cell-based, human"}}}
{"molecule": "Cc1ncc(C(=O)Nc2ccc(CN3CCN(C)CC3)c(C(F)(F)F)c2)cc1C#Cc1c(N)ncc2ccc(F)cc12", "note": "[Compound 7]", "values": [{"measurement": "IC50", "setting": "[1]", "value": 27.6, "unit": "nM"}, {"measurement": "IC50", "setting": "[2]", "value": 26.3, "unit": "nM"}, {"measurement": "inhibition of MEK1 kinase activity", "setting": "[3]", "value": "but not the downstream effectors MEK1, ERK1 and RSK1"}, {"measurement": "IC50", "setting": "[4]", "value": 12.8, "unit": "nM"}, {"measurement": "IC50", "setting": "[5]", "value": 1480, "unit": "nM"}, {"measurement": "IC50", "setting": "[6]", "value": 46.2, "unit": "nM"}, {"measurement": "IC50", "setting": "[7]", "value": 44.7, "unit": "nM"}, {"measurement": "viable MV4–11 cell count", "setting": "[8]", "value": "decreased in presence of compound in dose-dependent manner"}, {"measurement": "c-Myc level", "setting": "[9]", "value": "modest inhibition"}, {"measurement": "phosphorylation of Akt", "setting": "[10]", "value": "decreased phosphorylation"}, {"measurement": "phosphorylation of ERK", "setting": "[11]", "value": "inhibition"}, {"measurement": "phosphorylation of FLT3", "setting": "[12]", "value": "inhibition"}, {"measurement": "STAT3 phosphorylation", "setting": "[13]", "value": "inhibited"}, {"measurement": "STAT5 phosphorylation", "setting": "[14]", "value": "inhibited"}, {"measurement": "phosphorylation of Src", "setting": "[15]", "value": "inhibition"}, {"measurement": "phosphorylation of p38", "setting": "[16]", "value": "inhibition"}, {"measurement": "phosphorylation of p70S6K", "setting": "[17]", "value": "decreased phosphorylation"}, {"measurement": "phosphorylation of FLT3", "setting": "[18]", "value": "Inhibition"}]}
